Data from BindingDB's records for doi:10.1016/j.bmc.2019.02.015 (2019).

How the values were obtained:
[1] = Inhibition of mouse GAT-2 expressed in HEK293 cells assessed as decrease in [3H]GABA uptake preincubated for 25 mins followed by [3H]GABA addition and measured after 10 mins by scintillation counting analysis
[2] = Inhibition of mouse GAT-3 expressed in HEK293 cells assessed as decrease in [3H]GABA uptake preincubated for 25 mins followed by [3H]GABA addition and measured after 4 mins by scintillation counting analysis

Row | IC50 [1] [µM] | IC50 [2] [µM] | SMILES
1 | 17.8 |  | O=C(O)C1CCCN(CCON=Cc2cc(F)ccc2-c2ccc(Cl)cc2Cl)C1 (stereo unspecified)
2 | 38 | 91.2 | O=C(O)C1CCCN(CCON=Cc2sccc2-c2ccc(Cl)cc2Cl)C1 (stereo unspecified)
3 | 45.7 |  | O=C(O)C1CCCN(CCON=Cc2ccccc2-c2ccc(Cl)cc2Cl)C1 (stereo unspecified)
4 | 42.7 | 57.5 | O=C(O)[C@@H]1CCCN(CCON=Cc2ccccc2-c2ccc(Cl)cc2Cl)C1
